Reference: ChEMBL document CHEMBL4507256 (2021)

Tests used:
[1] = biological target: cAMP-dependent protein kinase catalytic subunit PRKX (Homo sapiens) (UniProt P51817); details: Compound concentration 1000.0 nM
[2] = biological target: Serine/threonine-protein kinase 38-like (Homo sapiens) (UniProt Q9Y2H1); details: Compound concentration 1000.0 nM
[3] = biological target: Mitogen-activated protein kinase 10 (Homo sapiens) (UniProt P53779); details: Compound concentration 1000.0 nM
[4] = organism: Rattus norvegicus; details: Compound concentration 10.0 uM
[5] = system: Fibroblast growth factor receptor 3 (Homo sapiens), P22607 [G697C]; details: Compound concentration 1000.0 nM
[6] = biological target: Uncharacterized serine/threonine-protein kinase SBK3 (Homo sapiens) (UniProt P0C264); details: Compound concentration 1000.0 nM
[7] = biological target: 3-phosphoinositide-dependent protein kinase 1 (Homo sapiens) (UniProt O15530); details: Compound concentration 1000.0 nM
[8] = biological target: Serine/threonine-protein kinase PAK 5 (Homo sapiens) (UniProt Q9P286); details: Compound concentration 1000.0 nM
[9] = biological target: Homeodomain-interacting protein kinase 3 (Homo sapiens) (UniProt Q9H422); details: Compound concentration 1000.0 nM
[10] = biological target: Serine/threonine-protein kinase PRP4 homolog (Homo sapiens) (UniProt Q13523); details: Compound concentration 1000.0 nM
[11] = biological target: Glycogen synthase kinase-3 beta (Homo sapiens) (UniProt P49841); details: Compound concentration 1000.0 nM
[12] = biological target: Delta-type opioid receptor (Homo sapiens) (UniProt P41143); details: Compound concentration 10.0 uM
[13] = biological target: 5-hydroxytryptamine receptor 2A (Homo sapiens) (UniProt P28223); details: Compound concentration 10.0 uM
[14] = biological target: Protein kinase C delta type (Homo sapiens) (UniProt Q05655); details: Compound concentration 1000.0 nM
[15] = biological target: Calcium-dependent protein kinase 1 (Plasmodium falciparum) (UniProt P62344); details: Compound concentration 1000.0 nM
[16] = biological target: Serine/threonine-protein kinase Nek4 (Homo sapiens) (UniProt P51957); details: Compound concentration 1000.0 nM
[17] = system: Phosphatidylinositol 4,5-bisphosphate 3-kinase catalytic subunit alpha isoform (Homo sapiens), P42336 [E545A]; details: Compound concentration 1000.0 nM
[18] = biological target: Mast/stem cell growth factor receptor Kit (Homo sapiens) (UniProt P10721); details: Compound concentration 1000.0 nM
[19] = biological target: Protein kinase C iota type (Homo sapiens) (UniProt P41743); details: Compound concentration 1000.0 nM
[20] = biological target: Mitogen-activated protein kinase 7 (Homo sapiens) (UniProt Q13164); details: Compound concentration 1000.0 nM
[21] = biological target: Dual specificity tyrosine-phosphorylation-regulated kinase 2 (Homo sapiens) (UniProt Q92630); details: Compound concentration 1000.0 nM
[22] = biological target: D(2) dopamine receptor (Homo sapiens) (UniProt P14416); details: Compound concentration 10.0 uM
[23] = biological target: Calcium/calmodulin-dependent protein kinase type 1B (Homo sapiens) (UniProt Q6P2M8); details: Compound concentration 1000.0 nM
[24] = biological target: Rho-associated protein kinase 1 (Homo sapiens) (UniProt Q13464); details: Compound concentration 1000.0 nM
[25] = biological target: Serine/threonine-protein kinase mTOR (Homo sapiens) (UniProt P42345); details: Compound concentration 1000.0 nM
[26] = biological target: Ephrin type-A receptor 2 (Homo sapiens) (UniProt P29317); details: Compound concentration 1000.0 nM
[27] = biological target: Mitogen-activated protein kinase 1 (Homo sapiens) (UniProt P28482); details: Compound concentration 1000.0 nM
[28] = biological target: Fibroblast growth factor receptor 2 (Homo sapiens) (UniProt P21802); details: Compound concentration 1000.0 nM
[29] = biological target: Tyrosine-protein kinase Fes/Fps (Homo sapiens) (UniProt P07332); details: Compound concentration 1000.0 nM
[30] = biological target: Serine/threonine-protein kinase D1 (Homo sapiens) (UniProt Q15139); details: Compound concentration 1000.0 nM
[31] = biological target: Death-associated protein kinase 3 (Homo sapiens) (UniProt O43293); details: Compound concentration 1000.0 nM
[32] = system: Mast/stem cell growth factor receptor Kit (Homo sapiens), P10721 [D816V]; details: Compound concentration 1000.0 nM
[33] = biological target: Ephrin type-B receptor 1 (Homo sapiens) (UniProt P54762); details: Compound concentration 1000.0 nM
[34] = system: Mast/stem cell growth factor receptor Kit (Homo sapiens), P10721 [L576P]; details: Compound concentration 1000.0 nM
[35] = system: Receptor-type tyrosine-protein kinase FLT3 (Homo sapiens), P36888 [UNDEFINED MUTATION]; details: Compound concentration 1000.0 nM
[36] = biological target: STE20-like serine/threonine-protein kinase (Homo sapiens) (UniProt Q9H2G2); details: Compound concentration 1000.0 nM
[37] = biological target: Cyclin-dependent kinase 11A (Homo sapiens) (UniProt Q9UQ88); details: Compound concentration 1000.0 nM
[38] = biological target: Protein-tyrosine kinase 6 (Homo sapiens) (UniProt Q13882); details: Compound concentration 1000.0 nM
[39] = biological target: Serine/threonine-protein kinase WNK2 (Homo sapiens) (UniProt Q9Y3S1); details: Compound concentration 1000.0 nM
[40] = biological target: Serine/threonine-protein kinase PAK 1 (Homo sapiens) (UniProt Q13153); details: Compound concentration 1000.0 nM
[41] = biological target: Serine/threonine-protein kinase Nek7 (Homo sapiens) (UniProt Q8TDX7); details: Compound concentration 1000.0 nM
[42] = biological target: Macrophage colony-stimulating factor 1 receptor (Homo sapiens) (UniProt P07333); details: Compound concentration 1000.0 nM
[43] = biological target: Interleukin-1 receptor-associated kinase 4 (Homo sapiens) (UniProt Q9NWZ3); details: Compound concentration 1000.0 nM
[44] = biological target: 5'-AMP-activated protein kinase catalytic subunit alpha-1 (Homo sapiens) (UniProt Q13131); details: Compound concentration 1000.0 nM
[45] = biological target: Serine/threonine-protein kinase 38 (Homo sapiens) (UniProt Q15208); details: Compound concentration 1000.0 nM

Sequence of Serine/threonine-protein kinase Nek7 (Homo sapiens) (Q8TDX7 whole entry, looked up): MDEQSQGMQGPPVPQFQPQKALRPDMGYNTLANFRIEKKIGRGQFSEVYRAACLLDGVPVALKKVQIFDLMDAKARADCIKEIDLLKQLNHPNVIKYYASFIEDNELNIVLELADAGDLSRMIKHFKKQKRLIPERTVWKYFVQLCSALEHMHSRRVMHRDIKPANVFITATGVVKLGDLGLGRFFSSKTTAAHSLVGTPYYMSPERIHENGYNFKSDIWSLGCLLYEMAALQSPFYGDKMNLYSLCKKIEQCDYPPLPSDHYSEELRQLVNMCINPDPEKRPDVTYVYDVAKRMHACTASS
Sequence of Serine/threonine-protein kinase PRP4 homolog (Homo sapiens) (Q13523 whole entry): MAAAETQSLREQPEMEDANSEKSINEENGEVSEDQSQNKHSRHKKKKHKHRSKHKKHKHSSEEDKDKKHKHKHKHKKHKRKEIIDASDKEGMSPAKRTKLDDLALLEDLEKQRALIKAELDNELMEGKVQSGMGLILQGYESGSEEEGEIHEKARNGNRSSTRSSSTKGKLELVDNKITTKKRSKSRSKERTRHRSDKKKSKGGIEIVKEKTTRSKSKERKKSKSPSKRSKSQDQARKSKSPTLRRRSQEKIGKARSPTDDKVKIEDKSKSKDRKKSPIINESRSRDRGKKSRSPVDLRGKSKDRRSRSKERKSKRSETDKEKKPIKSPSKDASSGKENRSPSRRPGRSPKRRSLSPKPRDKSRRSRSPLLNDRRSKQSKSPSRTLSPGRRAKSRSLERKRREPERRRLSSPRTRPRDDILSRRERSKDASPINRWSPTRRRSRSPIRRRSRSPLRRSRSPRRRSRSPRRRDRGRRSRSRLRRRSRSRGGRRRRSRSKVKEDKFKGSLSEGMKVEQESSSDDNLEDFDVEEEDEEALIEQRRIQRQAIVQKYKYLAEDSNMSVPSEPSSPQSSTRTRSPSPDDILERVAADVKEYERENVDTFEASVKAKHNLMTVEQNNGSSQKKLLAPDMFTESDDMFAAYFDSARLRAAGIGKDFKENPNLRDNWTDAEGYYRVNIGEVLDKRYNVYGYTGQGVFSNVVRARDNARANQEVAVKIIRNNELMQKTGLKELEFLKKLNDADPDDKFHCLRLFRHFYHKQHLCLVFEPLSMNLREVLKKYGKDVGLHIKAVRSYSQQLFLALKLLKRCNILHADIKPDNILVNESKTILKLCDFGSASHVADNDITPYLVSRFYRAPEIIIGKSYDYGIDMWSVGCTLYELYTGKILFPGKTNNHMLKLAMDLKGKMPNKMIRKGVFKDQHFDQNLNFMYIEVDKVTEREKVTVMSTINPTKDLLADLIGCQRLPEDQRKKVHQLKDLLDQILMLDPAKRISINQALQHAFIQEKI
Sequence of Calcium/calmodulin-dependent protein kinase type 1B (Homo sapiens) (Q6P2M8 whole entry): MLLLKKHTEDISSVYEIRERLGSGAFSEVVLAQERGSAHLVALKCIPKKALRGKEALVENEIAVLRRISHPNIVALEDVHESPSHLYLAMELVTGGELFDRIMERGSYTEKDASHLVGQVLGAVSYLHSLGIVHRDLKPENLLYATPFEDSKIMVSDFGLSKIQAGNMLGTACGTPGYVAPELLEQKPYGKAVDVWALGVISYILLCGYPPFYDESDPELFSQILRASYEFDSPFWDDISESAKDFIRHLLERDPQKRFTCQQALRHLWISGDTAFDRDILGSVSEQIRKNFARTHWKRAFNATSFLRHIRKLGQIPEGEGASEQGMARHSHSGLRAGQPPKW
Sequence of Fibroblast growth factor receptor 3 (Homo sapiens), P22607 [G697C] (P22607 whole entry G697C): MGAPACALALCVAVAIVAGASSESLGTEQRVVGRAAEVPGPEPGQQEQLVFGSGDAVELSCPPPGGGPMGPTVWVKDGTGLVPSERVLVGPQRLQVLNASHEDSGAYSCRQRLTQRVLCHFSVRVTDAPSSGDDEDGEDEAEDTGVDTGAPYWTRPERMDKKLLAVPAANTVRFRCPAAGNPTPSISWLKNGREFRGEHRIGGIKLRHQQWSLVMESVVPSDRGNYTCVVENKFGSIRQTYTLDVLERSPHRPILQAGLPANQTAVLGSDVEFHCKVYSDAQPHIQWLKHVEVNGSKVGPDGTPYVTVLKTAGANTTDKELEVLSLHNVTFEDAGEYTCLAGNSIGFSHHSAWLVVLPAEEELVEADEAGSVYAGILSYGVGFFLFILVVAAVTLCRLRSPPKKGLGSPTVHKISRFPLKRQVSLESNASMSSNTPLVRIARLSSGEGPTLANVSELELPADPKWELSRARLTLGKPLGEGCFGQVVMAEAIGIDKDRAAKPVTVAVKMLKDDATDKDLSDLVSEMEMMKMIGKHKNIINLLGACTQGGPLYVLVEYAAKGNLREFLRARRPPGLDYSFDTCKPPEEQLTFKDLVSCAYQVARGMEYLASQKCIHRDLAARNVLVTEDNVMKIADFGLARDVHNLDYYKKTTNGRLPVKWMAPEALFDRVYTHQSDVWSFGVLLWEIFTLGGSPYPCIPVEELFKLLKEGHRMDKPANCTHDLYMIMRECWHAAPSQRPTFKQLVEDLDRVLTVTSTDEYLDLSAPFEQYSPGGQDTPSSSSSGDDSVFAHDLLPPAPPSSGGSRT
Sequence of Serine/threonine-protein kinase Nek4 (Homo sapiens) (P51957 whole entry, looked up, canonical isoform): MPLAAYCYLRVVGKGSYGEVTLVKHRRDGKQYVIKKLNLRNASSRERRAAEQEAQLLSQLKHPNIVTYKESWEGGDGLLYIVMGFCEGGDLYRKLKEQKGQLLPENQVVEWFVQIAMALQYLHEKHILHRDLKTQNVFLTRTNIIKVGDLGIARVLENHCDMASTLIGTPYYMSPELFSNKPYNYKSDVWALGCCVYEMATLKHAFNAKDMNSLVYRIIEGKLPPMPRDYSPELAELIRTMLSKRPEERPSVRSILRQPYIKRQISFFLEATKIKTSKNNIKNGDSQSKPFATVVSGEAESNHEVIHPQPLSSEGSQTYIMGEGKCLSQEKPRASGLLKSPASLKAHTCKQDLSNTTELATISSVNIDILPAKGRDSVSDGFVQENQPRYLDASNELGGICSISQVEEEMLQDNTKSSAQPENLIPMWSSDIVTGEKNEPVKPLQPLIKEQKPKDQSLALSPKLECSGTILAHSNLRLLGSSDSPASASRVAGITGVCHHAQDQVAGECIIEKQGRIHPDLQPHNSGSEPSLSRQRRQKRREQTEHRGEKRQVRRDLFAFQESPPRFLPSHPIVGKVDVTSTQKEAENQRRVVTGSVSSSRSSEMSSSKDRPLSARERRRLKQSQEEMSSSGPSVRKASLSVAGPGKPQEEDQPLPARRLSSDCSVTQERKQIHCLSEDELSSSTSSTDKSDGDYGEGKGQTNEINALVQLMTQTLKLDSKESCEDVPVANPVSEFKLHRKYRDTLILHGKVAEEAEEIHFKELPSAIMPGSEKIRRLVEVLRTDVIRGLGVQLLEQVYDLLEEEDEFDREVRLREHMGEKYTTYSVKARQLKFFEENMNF
Sequence of Glycogen synthase kinase-3 beta (Homo sapiens) (P49841 whole entry, looked up): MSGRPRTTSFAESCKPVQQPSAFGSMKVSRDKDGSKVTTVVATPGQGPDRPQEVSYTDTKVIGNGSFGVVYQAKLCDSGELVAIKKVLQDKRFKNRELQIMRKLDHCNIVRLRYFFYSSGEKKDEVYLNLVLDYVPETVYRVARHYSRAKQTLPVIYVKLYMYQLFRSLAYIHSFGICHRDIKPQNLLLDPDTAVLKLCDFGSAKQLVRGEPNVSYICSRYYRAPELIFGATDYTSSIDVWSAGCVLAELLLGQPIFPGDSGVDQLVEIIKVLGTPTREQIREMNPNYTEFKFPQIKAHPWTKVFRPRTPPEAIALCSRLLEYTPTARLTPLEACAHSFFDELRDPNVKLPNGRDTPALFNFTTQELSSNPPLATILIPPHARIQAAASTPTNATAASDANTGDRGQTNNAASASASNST
Sequence of Protein kinase C delta type (Homo sapiens) (Q05655 whole entry, looked up): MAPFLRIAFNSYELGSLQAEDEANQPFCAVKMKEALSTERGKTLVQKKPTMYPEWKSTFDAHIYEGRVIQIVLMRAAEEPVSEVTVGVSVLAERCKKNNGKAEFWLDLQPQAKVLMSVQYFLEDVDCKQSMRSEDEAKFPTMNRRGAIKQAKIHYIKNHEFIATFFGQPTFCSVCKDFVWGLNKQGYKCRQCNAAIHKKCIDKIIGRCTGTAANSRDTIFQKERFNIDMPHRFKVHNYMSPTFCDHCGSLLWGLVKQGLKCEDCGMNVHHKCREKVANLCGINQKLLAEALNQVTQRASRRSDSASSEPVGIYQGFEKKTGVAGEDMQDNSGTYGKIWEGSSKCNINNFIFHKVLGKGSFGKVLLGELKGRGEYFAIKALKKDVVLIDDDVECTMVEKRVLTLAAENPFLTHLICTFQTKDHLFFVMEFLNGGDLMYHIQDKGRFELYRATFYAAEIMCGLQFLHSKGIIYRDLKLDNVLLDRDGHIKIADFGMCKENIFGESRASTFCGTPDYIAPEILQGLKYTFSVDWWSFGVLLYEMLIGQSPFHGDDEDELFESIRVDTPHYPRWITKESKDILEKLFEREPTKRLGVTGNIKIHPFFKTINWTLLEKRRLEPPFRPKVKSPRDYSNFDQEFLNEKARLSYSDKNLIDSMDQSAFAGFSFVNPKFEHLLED
Sequence of 5-hydroxytryptamine receptor 2A (Homo sapiens) (P28223 whole entry): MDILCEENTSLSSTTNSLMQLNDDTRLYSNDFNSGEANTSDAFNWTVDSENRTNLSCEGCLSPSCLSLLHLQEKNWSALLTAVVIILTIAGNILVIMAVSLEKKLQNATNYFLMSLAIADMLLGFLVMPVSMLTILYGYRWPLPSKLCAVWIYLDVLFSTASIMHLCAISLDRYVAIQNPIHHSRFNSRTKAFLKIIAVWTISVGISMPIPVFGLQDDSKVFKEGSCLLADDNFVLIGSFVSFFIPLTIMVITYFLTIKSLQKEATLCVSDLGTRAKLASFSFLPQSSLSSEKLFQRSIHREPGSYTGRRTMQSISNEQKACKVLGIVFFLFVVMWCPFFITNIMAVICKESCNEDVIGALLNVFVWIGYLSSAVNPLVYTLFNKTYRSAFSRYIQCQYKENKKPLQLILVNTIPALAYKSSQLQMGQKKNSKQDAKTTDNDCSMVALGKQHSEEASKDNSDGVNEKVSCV

CCC(=N\O)/C(C)=C/c1ccc(F)c(C)c1 [A-226]
residual activity [1]: 94% | residual activity [2]: 81% | residual activity [3]: 100% | inhibition [4]: 50.6% | residual activity [5]: 87% | residual activity [6]: 100% | residual activity [7]: 100% | residual activity [8]: 100% | residual activity [9]: 100% | residual activity [10]: 85% | residual activity [11]: 100% | inhibition [12]: 2.53% | inhibition [13]: 40.8% | residual activity [14]: 98% | residual activity [15]: 85% | residual activity [16]: 67% | residual activity [17]: 100% | residual activity [18]: 91% | residual activity [19]: 99% | residual activity [20]: 100% | residual activity [21]: 87% | inhibition [22]: -6.57% | residual activity [23]: 100% | residual activity [24]: 100% | residual activity [25]: 100% | residual activity [26]: 89% | residual activity [27]: 92% | residual activity [28]: 100% | residual activity [29]: 93% | residual activity [30]: 100% | residual activity [31]: 98% | residual activity [32]: 94% | residual activity [33]: 90% | residual activity [34]: 94% | residual activity [35]: 100% | residual activity [36]: 93% | residual activity [37]: 69% | residual activity [38]: 75% | residual activity [39]: 100% | residual activity [40]: 70% | residual activity [41]: 100% | residual activity [42]: 90% | residual activity [43]: 95% | residual activity [44]: 73% | residual activity [45]: 95%

CCC(=N\O)/C(C)=C/c1ccc(F)cc1 [A-079]
residual activity [1]: 96% | residual activity [2]: 95% | residual activity [3]: 100% | inhibition [4]: 11.9% | residual activity [5]: 84% | residual activity [6]: 100% | residual activity [7]: 87% | residual activity [8]: 100% | residual activity [9]: 78% | residual activity [10]: 100% | residual activity [11]: 79% | inhibition [12]: -7.17% | inhibition [13]: 21.7% | residual activity [14]: 100% | residual activity [15]: 87% | residual activity [16]: 83% | residual activity [17]: 76% | residual activity [18]: 100% | residual activity [19]: 74% | residual activity [20]: 88% | residual activity [21]: 94% | inhibition [22]: -8.66% | residual activity [23]: 82% | residual activity [24]: 100% | residual activity [25]: 100% | residual activity [26]: 84% | residual activity [27]: 71% | residual activity [28]: 93% | residual activity [29]: 73% | residual activity [30]: 71% | residual activity [31]: 87% | residual activity [32]: 87% | residual activity [33]: 100% | residual activity [34]: 100% | residual activity [35]: 94% | residual activity [36]: 91% | residual activity [37]: 94% | residual activity [38]: 100% | residual activity [39]: 80% | residual activity [40]: 88% | residual activity [41]: 85% | residual activity [42]: 91% | residual activity [43]: 100% | residual activity [44]: 99% | residual activity [45]: 94%
